{"source": "paper PMC4332848", "about": "(Clinical cancer research : an official journal of the …, 2013)", "key": {"AML / acute leukemias": {"tested_on": "AML / acute leukemias", "settings": "cited from earlier work"}, "[1]": {"experiment": "Serum vorinostat pharmacokinetics", "format": "in vivo, human", "settings": "for AUC(0-t): AUC0-8 h; for AUC(0-inf): AUC0-inf"}, "buccal mucosal cells": {"tested_on": "buccal mucosal cells", "experiment": "Cell-cycle phase distribution, pre vs on vorinostat", "format": "in vivo, human"}, "leukemic blasts": {"tested_on": "leukemic blasts", "experiment": "Cell-cycle phase distribution, pre vs on vorinostat", "format": "in vivo, human", "settings": "Mean"}, "Buccal mucosa cells": {"tested_on": "Buccal mucosa cells", "experiment": "TRAIL death receptor protein expression, pre vs on vorinostat", "format": "in vivo, human"}, "Leukemia blast cells": {"tested_on": "Leukemia blast cells", "experiment": "TRAIL death and decoy receptor protein expression, pre vs on vorinostat", "format": "in vivo, human"}, "HL-60/W [2]": {"tested_on": "HL-60/W", "experiment": "Control studies for DR or DcR expression", "format": "cell-based, human"}, "BCRP [3]": {"tested_on": "BCRP", "experiment": "BCRP transcripts in patient leukemic blasts", "format": "in vivo, human", "settings": "paired t test, 8 paired samples"}, "BCRP [4]": {"tested_on": "BCRP", "experiment": "Functional expression of BCRP in patient blasts", "format": "in vivo, human", "settings": "paired t test, 6 paired samples"}, "[5]": {"tested_on": "patients with poor-risk or advanced acute leukemias"}, "Pgp (ABCB1)": {"tested_on": "Pgp (ABCB1)", "settings": "individual patients' blasts on vorinostat; D < 0.15 = no overexpression"}, "Pgp": {"target": "Pgp (Homo sapiens, UniProt P08183)", "sequence (P08183 whole entry)": "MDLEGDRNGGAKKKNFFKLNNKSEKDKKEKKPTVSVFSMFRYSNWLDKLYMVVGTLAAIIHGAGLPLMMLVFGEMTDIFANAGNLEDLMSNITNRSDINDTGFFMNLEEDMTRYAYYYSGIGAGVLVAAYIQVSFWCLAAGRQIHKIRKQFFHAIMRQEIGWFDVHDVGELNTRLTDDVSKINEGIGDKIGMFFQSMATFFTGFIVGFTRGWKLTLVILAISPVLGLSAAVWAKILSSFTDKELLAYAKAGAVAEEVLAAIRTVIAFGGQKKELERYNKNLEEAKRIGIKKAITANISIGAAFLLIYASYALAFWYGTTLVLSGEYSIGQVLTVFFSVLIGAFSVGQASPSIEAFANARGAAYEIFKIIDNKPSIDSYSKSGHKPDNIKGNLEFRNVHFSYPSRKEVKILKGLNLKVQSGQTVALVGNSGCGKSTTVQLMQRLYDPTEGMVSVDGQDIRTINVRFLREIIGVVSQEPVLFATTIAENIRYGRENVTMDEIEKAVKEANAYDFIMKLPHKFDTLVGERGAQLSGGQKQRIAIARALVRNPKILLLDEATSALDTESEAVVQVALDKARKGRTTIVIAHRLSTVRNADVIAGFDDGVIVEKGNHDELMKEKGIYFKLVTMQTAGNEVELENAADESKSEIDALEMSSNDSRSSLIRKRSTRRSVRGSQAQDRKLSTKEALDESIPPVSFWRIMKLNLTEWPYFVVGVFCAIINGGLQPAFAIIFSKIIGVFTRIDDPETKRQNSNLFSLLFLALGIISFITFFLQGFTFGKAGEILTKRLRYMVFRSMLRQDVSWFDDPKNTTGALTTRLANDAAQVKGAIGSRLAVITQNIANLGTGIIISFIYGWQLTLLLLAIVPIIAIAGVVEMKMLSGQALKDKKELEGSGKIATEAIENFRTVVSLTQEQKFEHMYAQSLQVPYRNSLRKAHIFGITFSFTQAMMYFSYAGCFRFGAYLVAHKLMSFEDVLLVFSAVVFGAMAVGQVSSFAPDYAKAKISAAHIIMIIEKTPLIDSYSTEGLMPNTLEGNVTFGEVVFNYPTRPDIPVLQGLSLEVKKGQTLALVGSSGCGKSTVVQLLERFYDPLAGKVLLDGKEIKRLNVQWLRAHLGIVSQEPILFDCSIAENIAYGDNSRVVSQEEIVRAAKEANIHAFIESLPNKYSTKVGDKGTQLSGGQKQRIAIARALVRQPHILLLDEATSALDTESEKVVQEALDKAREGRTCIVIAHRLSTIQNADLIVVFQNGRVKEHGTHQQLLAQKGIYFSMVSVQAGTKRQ", "settings": "paired t test, 6 paired samples"}, "HL-60/W [6]": {"tested_on": "HL-60/W", "settings": "HL-60 cells, 24-hour exposure to 1 μmol/L vorinostat; cited from earlier work"}, "[7]": {"tested_on": "human leukemia cell lines", "settings": "cited from earlier work"}, "BCRP (ABCG2)": {"tested_on": "BCRP (ABCG2)", "experiment": "BCRP protein in patient leukemic blasts"}, "[8]": {"settings": "human, serum, oral, 200 mg, Median, N 21"}}, "note": "Several values for one entry are separate records, joined by “and”; a condition that tells them apart may be missing. Equal values may be shown once. Read-outs that look alike come from different tables or passages of the source."}
{"smiles": "Nc1ccccc1NC(=O)c1ccc(CNC(=O)OCc2cccnc2)cc1", "note": "[MS-275]", "values": [{"measurement": "clinical responses using classical criteria", "setting": "AML / acute leukemias; phase I study, 38 adults with advanced acute leukemias", "result": "no clinical responses"}]}
{"smiles": "CCCC(CCC)C(=O)O", "note": "[valproic acid]", "values": [{"measurement": "response rate", "setting": "AML / acute leukemias; frail or elderly patients with AML, valproic acid alone or in combination with all-trans retinoic acid", "result": 5, "unit": "%"}]}
{"smiles": "O=C(CCCCCCC(=O)Nc1ccccc1)NO", "note": "[vorinostat, suberoylanilide hydroxamic acid]", "values": [{"measurement": "Cmax", "setting": "[1]; DL2, average", "result": "165.2 ± 64.1", "unit": "ng/mL"}, {"measurement": "Cl/F", "setting": "[1]; Geometric mean, N 20", "result": 277, "unit": "L"}, {"measurement": "Vd/F", "setting": "[1]; Geometric mean, N 20", "result": 829, "unit": "L/h"}, {"measurement": "Cl/F", "setting": "[1]; Mean, N 20, serum, first 200 mg oral dose day 1", "result": 300, "unit": "L"}, {"measurement": "Cmax", "setting": "[1]; Mean, N 21, serum, first 200 mg oral dose day 1", "result": 185, "unit": "ng/mL"}, {"measurement": "Cl/F", "setting": "[1]; Median, N 20", "result": 265, "unit": "L"}, {"measurement": "Vd/F", "setting": "[1]; Median, N 20", "result": 689, "unit": "L/h"}, {"measurement": "t1/2", "setting": "[1]; Median, N 20", "result": 1.7, "unit": "h"}, {"measurement": "AUC(0-t)", "setting": "[1]; human, serum, oral, 200 mg, Geometric mean, N 21", "result": 591, "unit": "ng·h/mL"}, {"measurement": "AUC(0-t)", "setting": "[1]; [8]", "result": 623, "unit": "ng·h/mL"}, {"measurement": "AUC(0-inf)", "setting": "[1]; human, serum, oral, 200 mg, Geometric mean, N 20", "result": 722, "unit": "ng·h/mL"}, {"measurement": "AUC(0-inf)", "setting": "[1]; human, serum, oral, 200 mg, Median, N 20", "result": 757, "unit": "ng·h/mL"}, {"measurement": "Cmax", "setting": "[1]; human, serum, oral, 200 mg, Cmax, 65 years or older age group, average", "result": "203 ± 101", "unit": "ng/mL"}, {"measurement": "Cmax", "setting": "[1]; human, serum, oral, 200 mg, Cmax, DL1, average", "result": "197 ± 90.4", "unit": "ng/mL"}, {"measurement": "Cmax", "setting": "[1]; human, serum, oral, 200 mg, Cmax, less than 65 years of age cohort, average", "result": "174 ± 174", "unit": "ng/mL"}, {"measurement": "Tmax", "setting": "[1]; human, serum, oral, 200 mg, 65 years or older age group, average", "result": "1.6 ± 1.1", "unit": "h"}, {"measurement": "Tmax", "setting": "[1]; human, serum, oral, 200 mg, DL2, average", "result": "3.5 ± 2", "unit": "h"}, {"measurement": "Tmax", "setting": "[1]; [8]", "result": 2, "unit": "h"}, {"measurement": "Tmax", "setting": "[1]; human, serum, oral, 200 mg, less than 65 years of age cohort, average", "result": "3.3 ± 3.3", "unit": "h"}, {"measurement": "half-life", "setting": "[1]; human, serum, po, 200 mg", "result": 2.5, "unit": "h"}, {"measurement": "Tmax", "setting": "[1]; human, serum, po, 200 mg, Mean, N 21, serum, first 200 mg oral dose day 1", "result": 2.6, "unit": "h"}, {"measurement": "% G0–G1", "setting": "buccal mucosal cells; Mean, N= 17, On vorinostat (days 4 to 7), Pre mean 77.99, P 0.5705", "result": 79.85, "unit": "%"}, {"measurement": "% G2–M", "setting": "buccal mucosal cells; Mean, N= 17, On vorinostat, Pre mean 2.14, P 0.2586", "result": 3.26, "unit": "%"}, {"measurement": "%S", "setting": "buccal mucosal cells; Mean, N= 17, On vorinostat, Pre mean 11.49, P 0.9168", "result": 11.30, "unit": "%"}, {"measurement": "% sub-G0–G1", "setting": "buccal mucosal cells; Mean, N= 17, On vorinostat, Pre mean 11.74, P 0.1942", "result": 7.79, "unit": "%"}, {"measurement": "alteration in any cell-cycle phase upon treatment", "setting": "buccal mucosal cells; pre vs on vorinostat, 17 patients", "result": "no statistically significant alteration"}, {"measurement": "% G0–G1", "setting": "leukemic blasts; N = 16, On vorinostat (days 4 to 7), Pre mean 83.97, P 0.1519", "result": 87.60, "unit": "%"}, {"measurement": "% G2–M", "setting": "leukemic blasts; N = 16, On vorinostat, Pre mean 3.83, P 0.7556", "result": 3.55, "unit": "%"}, {"measurement": "% sub-G0/G1", "setting": "leukemic blasts; N = 16, On vorinostat, Pre mean 4.29, P 0.0693", "result": 2.60, "unit": "%"}, {"measurement": "%S", "setting": "leukemic blasts; N = 16, On vorinostat, Pre mean 9.22, P 0.2841", "result": 7.17, "unit": "%"}, {"measurement": "Percentage of cells expressing DR5", "setting": "Buccal mucosa cells; Mean, N 4, On vorinostat, Pre mean 26.46, P 0.9316", "result": "25.98 (4)"}, {"measurement": "Percentage of cells expressing DR4", "setting": "Buccal mucosa cells; Mean, N 4, On vorinostat, Pre mean 27.90, P 0.5873", "result": "41.39 (4)"}, {"measurement": "DR4 or DR5 expression, pre vs on vorinostat", "setting": "Buccal mucosa cells; limited samples", "result": "no statistically significant differences"}, {"measurement": "Percentage of cells expressing DcR2", "setting": "Leukemia blast cells; Mean, N 11, On vorinostat, Pre mean 15.83, P 0.5279", "result": "17.56 (11)"}, {"measurement": "Percentage of cells expressing DcR1", "setting": "Leukemia blast cells; Mean, N 11, On vorinostat, Pre mean 17.59, P 0.1364", "result": "25.97 (11)"}, {"measurement": "Percentage of cells expressing DR4", "setting": "Leukemia blast cells; Mean, N 14, On vorinostat, Pre mean 12.21, P 0.5498", "result": "13.82 (14)"}, {"measurement": "Percentage of cells expressing DR5", "setting": "Leukemia blast cells; Mean, N 14, On vorinostat, Pre mean 14.75, P 0.3617", "result": "17.68 (14)"}, {"measurement": "DR4, DR5, DcR1, DcR2 expression, pre vs on vorinostat", "setting": "Leukemia blast cells; two-sample paired t test or Wilcoxon signed-rank test", "result": "no significant differences"}, {"measurement": "DcR1, % Positive cells", "setting": "HL-60/W [2]; 1 μmol/L vorinostat × 24 hours, untreated HL-60/W 23 ± 2", "result": "94.3 ±1.7", "unit": "%"}, {"measurement": "DR5, % Positive cells", "setting": "HL-60/W [2]; 1 μmol/L vorinostat × 24 hours, untreated HL-60/W 47.3 ± 27", "result": "84.2 ± 6.5", "unit": "%"}, {"measurement": "DR4, % Positive cells", "setting": "HL-60/W [2]; 1 μmol/L vorinostat × 24 hours, untreated HL-60/W 55.8 ±14", "result": "73.2 ±15", "unit": "%"}, {"measurement": "DcR2, % Positive cells", "setting": "HL-60/W [2]; 1 μmol/L vorinostat × 24 hours, untreated HL-60/W 56.2 ± 3", "result": "96.3 ±1.1", "unit": "%"}, {"measurement": "DR4, DR5, DcR1, and DcR2 expression", "setting": "HL-60/W [2]; 24-hour exposure to 1 μmol/L vorinostat, P < 0.02, t test", "result": "significantly increases"}, {"measurement": "BCRP mRNA expression, on vs pre vorinostat among all patients", "setting": "BCRP [3]", "result": "no significant alteration"}, {"measurement": "BCRP function, on vs pre vorinostat", "setting": "BCRP [4]", "result": "no difference in function"}, {"measurement": "DLTs", "setting": "[5]; DL1, 200 mg vorinostat p.o. twice a day", "result": "No DLTs"}, {"measurement": "DLTs", "setting": "[5]; DL2, 200 mg vorinostat 3 times a day, among 5 dose-escalation-evaluable patients", "result": 2}, {"measurement": "patients with MDR1 expression increased in the on treatment samples", "setting": "MDR1; 7 of 8 paired samples, 95% CI, 50%–99%", "result": 88, "unit": "%"}, {"measurement": "MDR1 mRNA expression, on vs pre vorinostat among all patients", "setting": "MDR1; paired t test, 8 paired samples", "result": "no significant alteration"}, {"measurement": "Pgp Protein, ON (Kolmogorov–Smirnov D value)", "setting": "Pgp (ABCB1)", "result": "0.05 and 0.07 and 0.08"}, {"measurement": "Pgp function, on vs pre vorinostat", "setting": "Pgp", "result": "no difference in function"}, {"measurement": "TRAIL death and decoy receptor expression", "setting": "HL-60/W [6]", "result": "increased DR4 and DR5 expression, but not DcR1 or DcR2 expression"}, {"measurement": "interaction between vorinostat and etoposide", "setting": "[7]", "result": "synergy"}, {"measurement": "interaction with anthracyclines and etoposide, in vitro cytotoxicity studies", "setting": "[7]", "result": "additively or synergistically"}, {"measurement": "interaction, concomitant administration of cytarabine and vorinostat", "setting": "[7]", "result": "antagonism"}, {"measurement": "interaction, sequential administration of vorinostat followed by cytarabine", "setting": "[7]", "result": "synergism"}, {"measurement": "concentrations giving significant reduction in the percentage of S-phase cells", "setting": "[7]; within 24 hours after in vitro exposure", "result": "≥ 1", "unit": "µmol/L"}, {"measurement": "BCRP Protein, ON (Kolmogorov–Smirnov D value)", "setting": "BCRP (ABCG2); individual patients' blasts on vorinostat, D < 0.15 = no overexpression", "result": "0.05 and 0.15 and 0.19"}, {"measurement": "BCRP protein expression following treatment", "setting": "BCRP (ABCG2); patients 17 and 24", "result": "slight decreases"}]}
